Data on one compound can be found in US20240318160A1 (Wisconsin Alumni Research Foundation, priority 2023, published 2024).

What all share (format): biochemical
The target in test [1] is Arabidopsis thaliana AtPAL1 variant F144H (AtPAL1^F144H), SEQ ID NO: 261 (Arabidopsis thaliana, UniProt P35510, F144H). As to the kind of experiment: TAL and PAL enzyme kinetics. To be noted: TAL assay (L-Tyr), pH 8.5, 30° C. On the procedure:
(§1) A mixture containing 100 mM Tris-HCl (pH 8.5), 1% glycerol, and purified enzyme in a total volume of 50 μl was preincubated for 3 min at 30° C. […] The reactions were terminated by addition of 6N acetic acid (10 μl).
(§2) The kinetic parameters of the recombinant enzymes were determined using HPLC. Reaction mixtures containing 100 mM Tris-HCl (pH 8.5), 1% glycerol, and purified enzyme (0.15 μg for PAL assay and 1 μg for TAL assay) in a 50 μl total volume were preincubated for 3 min at 30° C. […] After 10 min and 20 min incubations for PAL and TAL assay, respectively, at 30° C., the reaction was terminated by addition of 6N acetic acid (10 μl). […] The products were quantified using calibration curves generated using authentic standards. Non-linear hyperbolic regression analyses were conducted using the Excel Solver tool to calculate Km and Vmax values.

The subject of test [2] is Ecdeiocolea monostachya EmoPTAL variant H127F (EmoPTAL^H127F). Briefly: TAL and PAL enzyme kinetics. To be noted: TAL assay (L-Tyr), pH 8.5, 30° C. Here is the method: as §1, §2
The subject of test [3] is Streptochaeta angustifolia SaPTAL-a variant H118F (SaPTAL-a^H118F). Briefly: TAL and PAL enzyme kinetics. To be noted: TAL assay (L-Tyr), pH 8.5, 30° C. On the procedure: as §1, §2
Test [4] concerns Streptochaeta angustifolia SaPTAL-b variant H126F (SaPTAL-b^H126F). As to the kind of experiment: TAL and PAL enzyme kinetics. To be noted: TAL assay (L-Tyr), pH 8.5, 30° C. On the procedure: as §1, §2
The test system of test [5] is Sorghum bicolor SbPAL variant F135H (SbPAL^F135H). As to the kind of experiment: TAL and PAL enzyme kinetics. The note with it: TAL assay (L-Tyr), pH 8.5, 30° C. Here is the method: as §1, §2
Test [6] has as its system Joinvillea ascendens JaPTAL, wild type, SEQ ID NO: 27. As to the kind of experiment: TAL and PAL enzyme kinetics. The note with it: TAL assay (L-Tyr), pH 8.5, 30° C. Here is the method: as §1, §2
Test [7] deals with Ecdeiocolea monostachya EmoPAL variant F134H (EmoPAL^F134H). As to the kind of experiment: TAL and PAL enzyme kinetics. To be noted: TAL assay (L-Tyr), pH 8.5, 30° C. On the procedure: as §1, §2
The subject of test [8] is PAL^F140H mutants (JaPAL^F140H, EmoPAL^F134H, BdPAL^F137H, SbPAL^F135H). Briefly: TAL and PAL enzyme kinetics, group of enzymes. The note with it: TAL activity, range over mutants. On the procedure: as §2
Test [9] relates to Joinvillea ascendens JaPAL^F140H_MUT8 variant V500I. Briefly: TAL and PAL enzyme kinetics. To be noted: TAL assay (L-Tyr), pH 8.5, 30° C. On the procedure: (§3) To determine which of the 8 circle residues are essential in the conversion of PAL enzymes to PTAL enzymes (FIG. 3C), we mutated, one by one, each one of these 8 residues back to the PAL type in JaPAL^F140H_MUT8 and determined their effects on catalytic efficiency.
as §1, §2

Test [10] relates to Joinvillea ascendens JaPAL^F140H_MUT8 variant A448S. Briefly: TAL and PAL enzyme kinetics. The note with it: TAL assay (L-Tyr), pH 8.5, 30° C. Here is the method:
as §3, §1, §2

For test [11], the system named is Joinvillea ascendens JaPAL^F140H_MUT8 variant I122S (in Table 3; I112S in text). As to the kind of experiment: TAL and PAL enzyme kinetics. To be noted: TAL assay (L-Tyr), pH 8.5, 30° C. Here is the method: as §3, §1, §2
In test [12] the test system is Joinvillea ascendens JaPAL^F140H_MUT8 variant G121A. Briefly: TAL and PAL enzyme kinetics. To be noted: TAL assay (L-Tyr), pH 8.5, 30° C. On the procedure: as §3, §1, §2
In test [13] the test system is Joinvillea ascendens JaPAL^F140H_MUT8 variant L138I. Briefly: TAL and PAL enzyme kinetics. To be noted: TAL assay (L-Tyr), pH 8.5, 30° C. Here is the method: as §3, §1, §2
Test [14] concerns Joinvillea ascendens JaPAL^F140H_MUT8 variant I102V. Briefly: TAL and PAL enzyme kinetics. The note with it: TAL assay (L-Tyr), pH 8.5, 30° C. On the procedure: as §3, §1, §2
The test system of test [15] is Joinvillea ascendens JaPAL^F140H_MUT8 variant S267A. As to the kind of experiment: TAL and PAL enzyme kinetics. To be noted: TAL assay (L-Tyr), pH 8.5, 30° C. On the procedure:
as §3, §1, §2

The test system of test [16] is Joinvillea ascendens JaPAL^F140H_MUT8 variant T444P. As to the kind of experiment: TAL and PAL enzyme kinetics. To be noted: TAL assay (L-Tyr), pH 8.5, 30° C. On the procedure: as §3, §1, §2
Test [17] has as its system Joinvillea ascendens JaPAL variant F140H/S112I (JaPAL^F140H_S112I), SEQ ID NO: 145. Briefly: TAL and PAL enzyme kinetics. To be noted: TAL assay (L-Tyr), pH 8.5, 30° C. Here is the method: To test this hypothesis further, the reciprocal S112I mutation was introduced into the JaPAL^F140H single mutant to generate the JaPAL^F140H_S112I double mutant. For comparison, a single mutant in which the residue corresponding to Ser112 was converted to Ile (i.e., JaPAL^S112I) was generated as well.
as §1, §2

In test [18] the test system is PTAL^H140F mutants (SbPTAL^H123F, BdPTAL^H123F, SaPTAL-a^H118F, SaPTAL-b^H126F, EmoPTAL^H127F, JaPTAL^H125F). As to the kind of experiment: TAL and PAL enzyme kinetics, group of enzymes. To be noted: TAL activity, range over mutants. An excerpt:
To experimentally test the role of His 140 in the acquisition of TAL activity, we next conducted site-directed mutagenesis on the PAL and PTAL enzymes of grasses and non-grass graminids characterized above and analyzed their effects on TAL activity. For the PAL enzymes, the residue corresponding to Phe 140 was converted to His to generate JaPAL^F140H EmoPAL^F134H, BdPAL^F137H, and SbPAL^F135H. […] For the PTAL enzymes, the residue corresponding to His 140 was converted to Phe to generate SbPTAL^H123F, BdPTAL^H123F, SaPTAL-a^H118F, SaPTAL-b^H126F, EmoPTAL^H127F, and JaPTAL^H125F. […] Thus, unlike in the bacterial TAL enzyme (Watts et al., 2006), other residues besides the His 140 are likely important for the acquisition of strong TAL activity in the PTAL enzymes of grasses and closely-related non-grass graminids.
The kinetic parameters of the recombinant enzymes were determined using HPLC. Reaction mixtures containing 100 mM Tris-HCl (pH 8.5), 1% glycerol, and purified enzyme (0.15 μg for PAL assay and 1 μg for TAL assay) in a 50 μl total volume were preincubated for 3 min at 30° C. PAL and TAL reactions were started by addition of 50 μl substrate solution prepared with 0-4 mM L-Phe and 0-2 mM L-Tyr. After 10 min and 20 min incubations for PAL and TAL assay, respectively, at 30° C., the reaction was terminated by addition of 6N acetic acid (10 μl). […] The products were quantified using calibration curves generated using authentic standards. Non-linear hyperbolic regression analyses were conducted using the Excel Solver tool to calculate Km and Vmax values.

For test [19], the system named is wild-type PTAL enzymes (SbPTAL, BdPTAL, SaPTAL-a, SaPTAL-b, EmoPTAL, JaPTAL). Briefly: TAL enzyme kinetics, group of enzymes. To be noted: TAL activity (Tyr), range over PTAL enzymes; read-out: apparent Km. On the procedure:
as §2

Chain of Arabidopsis thaliana AtPAL1 variant F144H (AtPAL1^F144H), SEQ ID NO: 261 (P35510 whole entry F144H): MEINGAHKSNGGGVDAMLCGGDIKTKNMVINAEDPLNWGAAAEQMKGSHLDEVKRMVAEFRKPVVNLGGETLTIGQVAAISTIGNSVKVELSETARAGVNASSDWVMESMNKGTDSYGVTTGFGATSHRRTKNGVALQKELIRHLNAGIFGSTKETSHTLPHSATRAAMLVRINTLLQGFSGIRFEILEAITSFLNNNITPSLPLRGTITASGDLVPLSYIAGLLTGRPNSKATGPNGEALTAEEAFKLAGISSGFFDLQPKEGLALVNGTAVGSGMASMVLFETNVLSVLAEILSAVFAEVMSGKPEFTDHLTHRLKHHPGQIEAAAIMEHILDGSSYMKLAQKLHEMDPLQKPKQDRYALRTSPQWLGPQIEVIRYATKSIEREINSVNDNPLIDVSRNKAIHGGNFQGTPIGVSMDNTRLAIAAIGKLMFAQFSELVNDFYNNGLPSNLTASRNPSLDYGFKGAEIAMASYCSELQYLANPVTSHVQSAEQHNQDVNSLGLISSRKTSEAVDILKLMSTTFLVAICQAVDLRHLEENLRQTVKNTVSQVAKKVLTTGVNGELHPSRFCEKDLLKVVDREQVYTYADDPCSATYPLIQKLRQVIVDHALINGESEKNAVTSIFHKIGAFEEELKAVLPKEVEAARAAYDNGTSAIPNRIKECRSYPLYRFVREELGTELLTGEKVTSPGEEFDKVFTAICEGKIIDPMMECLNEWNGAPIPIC

The term kcat denotes the maximal rate divided by the concentration of active sites. As a reminder, the Km is the concentration of substrate that gives half-maximal velocity. For the compound `N[C@@H](Cc1ccc(O)cc1)C(=O)O` [L-Tyr, tyrosine], the turnover number (kcat) in test [1] worked out at 0.01 ± 0.00 s⁻¹. Moreover, the Km in test [2] came to 614 ± 18.1 µM; in test [3], 531 ± 13.2 µM; in test [4], 724 ± 54.8 µM; in [5] it was 413 ± 6.5 µM; in [6], 11 ± 0.4 µM; in test [7], 450 ± 14.2 µM. The Km in [8] was 222 to 450 µM; in test [9] it was 25.1 ± 3.2 µM; in test [10] it was 23.3 ± 1 µM; in [11] it was 282 ± 29 µM; in test [12], 12.6 ± 0.6 µM; in [13] it was 18.3 ± 0.6 µM. For the same compound, the Michaelis constant (Km) in [14] was 24.5 ± 1.4 µM; in [15], 43.1 ± 1.5 µM; in test [16], 25.3 ± 2.4 µM; in [17] it was 17.2 ± 0.7 µM; in [18], 531 to 765 µM; in test [19] it was 11 to 19 µM.
